The record followed here is patent US20140066381A1, “NOVEL PEPTIDES THAT ARE MODULATORS OF THE PROTEIN TRF2 AND COMPOSITIONS CONTAINING SAME” (ISP INVESTMENTS INC., priority 2011, published 2014).

Ends that are not written are not given here.

Holding throughout (type): cell-based
For one experiment, the system named is TRF2 protein. Put plainly: TRF2 protein expression by Western Blot in human fibroblasts with or without TRF2 siRNA. The settings on record: 72 h. As to the method: To quantify the efficacy of a peptide compound according to the invention, on the overexpression of TRF2 in a human fibroblast population, the gene coding for TRF2 was “turned off” by using the siRNA technique.
Fibroblast cells are placed in culture in a 6-well plate until 60% confluence. The culture medium is renewed by adding the peptide SEQ ID NO: 2 at 1% under the conditions described below. Then, 100 μL of a mixture previously produced containing, in the end, 10 nM of TRF2 siRNA and the transfection agent are gently added, one drop at a time, and one well at a time. The cell culture plate is incubated at 37° C. and 5% in CO2 for 72 h. The culture medium is renewed every 2 days. Four conditions were established: • condition 1: control without siRNA and without active agent • condition 2: cells transfected with the siRNA, without active agent • condition 3: cells not transfected but treated with the active agent • condition 4: cells transfected with the siRNA and treated with the active agent
The quantification of the TRF2 expression is observed by the classic immunotransfer technique (Western Blot) performed with an anti-TRF2 antibody and according to a classic protocol. […]

The next experiment has as its system vimentin. Put plainly: Vimentin immunofluorescence detection in fibroblasts aged by replicative senescence. The settings on record: human fibroblasts, daily application of peptide at 1% or 3%, more than 17 passages, immunofluorescence at passages 6 and 17. As to the method:
Human fibroblasts are placed in culture in a specific medium and kept in culture for a long treatment (for more than 17 passages), by means of a daily application of the peptide SEQ ID NO: 2 at a concentration of 1% or of 3%. A vimentin immunofluorescence detection experiment is performed on the cells in culture passages 6 and 17. The cells are then washed with PBS, fixed with 3.7% formaldehyde for 10 minutes, permeabilized by means of 0.2% Triton X-100 for 10 minutes (Fisher Chemical) and incubated with 1% BSA (Euromedex) for 15 minutes. An anti-vimentin antibody (Tebu Santa Cruz) is then added and incubated at a dilution of 1/200 for 2 h at room temperature. After washing with PBS, a Donkey anti-mouse IgG antibody, conjugated with a marker ALEXA FLUOR® 488, is added at a dilution of 1/1000 and incubated for one hour at room temperature. Finally, the sections are mounted with Fluoromount G (Electron Microscopy Science) and examined under a microscope (Nikon Eclipse 80i, enlargement 40×).

The subject of a further experiment is Human skin biopsies. Put plainly: Human skin biopsies rendered senescent in vitro using methylglyoxal, H&E morphology. Here is the method: Human skin biopsies are rendered artificially senescent in vitro, by means of a treatment with methylglyoxal (MGO). For this, des punch de 6-mm human skin punch biopsies are incubated at the air-liquid interface in a specific culture medium. They are then treated with 5 mM or 10 mM of MGO (Sigma) deposited at the surface of the biopsies and in the culture medium. The biopsies are then treated with: • condition 1: 20 μL of PBS 1×, or • condition 2: 20 μL of peptide SEQ ID NO: 4 at 1%, or • condition 3: 20 μL of peptide SEQ ID NO: 4 at 3%.
The biopsies are fixed and embedded in paraffin, and are then cut into 4-μm sections using a microtome. Hematoxyline/eosine (H&E) immunolabeling is performed on the sections previously cut and their morphology and structure are studied by microscopic observation (under a microscope Nikon Eclipse E600, objective 40×).

For the substance “Lys-Lys-Gln-Lys-Trp-NH2 (KKQKW-NH2) [SEQ ID NO: 2]”, the “increase in the expression of the TRF2 protein with respect to the control” value in the experiment with TRF2 protein (condition 3 vs condition 1: cells not transfected, peptide at 1%, Western Blot) amounted to 17%. Moreover, the “reduction in TRF2 expression with respect to the control condition” value with TRF2 protein (condition 4 vs condition 1: cells transfected with 10 nM TRF2 siRNA and treated with peptide at 1%) was “no more than 18%”. Moreover, the “vimentin expression in aged fibroblasts, treated vs not treated” value with vimentin is reported as “express less vimentin”.

In the case of “Ala-Met-Lys-Lys-Gln-Lys-Trp-NH2 (AMKKQKW-NH2) [SEQ ID NO: 4]”, the “damage inflicted on the structures of the biopsies vs control conditions” value in the experiment with Human skin biopsies (6-mm human skin punch biopsies, 5 mM or 10 mM MGO, 20 μL of peptide at 1% or 3%, H&E) is on record as “much less significant”. Besides, the “protective effect of the peptide, 3% dose vs 1% dose” value in the experiment on Human skin biopsies (human skin biopsies treated with MGO, 20 μL of peptide at 1% vs 3%) was “dose-dependent”.
